Values quoted from earlier work in PubChem BioAssay AID1259409 (Chemical Carcinogenesis Research Information System (CCRIS), 2018).

Tested on: rodent chemically induced tumor inhibition, incidence and multiplicity
Assay: CCRIS tumor inhibitor studies
Settings: Dose [Inhibitor]: 0, Route [Inhibitor]: ORAL, Species: RAT, Promoter: NONE USED

CCCCCCCCCCCCC(=O)COC1=C(O)C(=O)O[C@@H]1[C@@H](O)CO
tumour outcome (control, treated, inhibition, significance) (Carcinogen: 2-AMINO-1-METHYL-6-PHENYLIMIDAZO[4,5-B]PYRIDINE, 105650-23-5, 1% IN DIET FOR 52 WK CONCURRENTLY WITH CARCINOGEN TREATMENT (STUDY DURATION: 52 WK), Strain/Sex: F344/FEMALE, Target Tissue: Type of Lesion: LARGE INTESTINE: ADENOMA OR CARCINOMA, Dose [Carcinogen]: 0.02% IN DIET FOR 52 WK): 2/18 (11%), 1/20 (5%), 55%, not significant | tumour outcome (control, treated, inhibition, significance) (Carcinogen: 2-AMINO-1-METHYL-6-PHENYLIMIDAZO[4,5-B]PYRIDINE, 105650-23-5, 1% IN DIET FOR 52 WK CONCURRENTLY WITH CARCINOGEN TREATMENT (STUDY DURATION: 52 WK), Strain/Sex: F344/FEMALE, Target Tissue: Type of Lesion: MAMMARY GLAND: ADENOCARCINOMA, Dose [Carcinogen]: 0.02% IN DIET FOR 52 WK): 8/20 (40%), 5/21 (24%), 40%, not significant | tumour outcome (control, treated, inhibition, significance) (Carcinogen: DIETHYLNITROSAMINE, 55-18-5, N-METHYL-N-NITROSOUREA, 684-93-5, N-BUTYL-N-(4-HYDROXYBUTYL)NITROSAMINE, 3817-11-6, DIMETHY, Carcinogen: DIETHYLNITROSAMINE, 55-18-5, N-METHYL-N-NITROSOUREA, 684-93-5, N-BUTYL-N-(4-HYDROXYBUTYL)NITROSAMINE, 3817-11-6, DIMETHY, 1% IN THE DIET FOR 24 WK BEGINNING 1 D POST CARCINOGEN TREATMENT (STUDY DURATION: 28 WK), Strain/Sex: F344/MALE, Target Tissue: Type of Lesion: LARGE INTESTINE: CARCINOMA, Dose [Carcinogen]: 100 MG/KG BW DEN ONCE FOLLOWED BY 20 MG/KG BW MNU 4 TIMES AND 0.05% BBN IN DRINKING WATER DURING FIRST 2 WK THEN 40 MG/K): 7%, 0%, 100%, not significant | tumour outcome (control, treated, inhibition, significance) (Carcinogen: DIETHYLNITROSAMINE, 55-18-5, N-METHYL-N-NITROSOUREA, 684-93-5, N-BUTYL-N-(4-HYDROXYBUTYL)NITROSAMINE, 3817-11-6, DIMETHY, Carcinogen: DIETHYLNITROSAMINE, 55-18-5, N-METHYL-N-NITROSOUREA, 684-93-5, N-BUTYL-N-(4-HYDROXYBUTYL)NITROSAMINE, 3817-11-6, DIMETHY, 1% IN THE DIET FOR 24 WK BEGINNING 1 DAY POST CARCINOGEN TREATMENT (STUDY DURATION: 28 WK ), Strain/Sex: F344/MALE, Target Tissue: Type of Lesion: URINARY BLADDER: CARCINOMA, Dose [Carcinogen]: 100 MG/KG BW DEN ONCE FOLLOWED BY 20 MG/KG BW MNU 4 TIMES AND 0.05% BBN IN DRINKING WATER DURING FIRST 2 WK THEN 40 MG/K): 7%, 0%, 100%, not significant | tumour outcome (control, treated, inhibition, significance) (Carcinogen: DIETHYLNITROSAMINE, 55-18-5, N-METHYL-N-NITROSOUREA, 684-93-5, N-BUTYL-N-(4-HYDROXYBUTYL)NITROSAMINE, 3817-11-6, DIMETHY, Carcinogen: DIETHYLNITROSAMINE, 55-18-5, N-METHYL-N-NITROSOUREA, 684-93-5, N-BUTYL-N-(4-HYDROXYBUTYL)NITROSAMINE, 3817-11-6, DIMETHY, 1% IN THE DIET FOR 24 WK BEGINNING 1 DAY POST CARCINOGEN TREATMENT (STUDY DURATION: 28 WK), Strain/Sex: F344/MALE, Target Tissue: Type of Lesion: LARGE INTESTINE: ADENOMA, Dose [Carcinogen]: 100 MG/KG BW DEN ONCE FOLLOWED BY 20 MG/KG BW MNU 4 TIMES AND 0.05% BBN IN DRINKING WATER DURING FIRST 2 WK THEN 40 MG/K): 27%, 13%, 52%, not significant | tumour outcome (control, treated, inhibition, significance) (Carcinogen: DIETHYLNITROSAMINE, 55-18-5, N-METHYL-N-NITROSOUREA, 684-93-5, N-BUTYL-N-(4-HYDROXYBUTYL)NITROSAMINE, 3817-11-6, DIMETHY, Carcinogen: DIETHYLNITROSAMINE, 55-18-5, N-METHYL-N-NITROSOUREA, 684-93-5, N-BUTYL-N-(4-HYDROXYBUTYL)NITROSAMINE, 3817-11-6, DIMETHY, 1% IN THE DIET FOR 24 WK BEGINNING 1 DAY POST CARCINOGEN TREATMENT (STUDY DURATION: 28 WK), Strain/Sex: F344/MALE, Target Tissue: Type of Lesion: SMALL INTESTINE: ADENOMA, Dose [Carcinogen]: 100 MG/KG BW DEN ONCE FOLLOWED BY 20 MG/KG BW MNU 4 TIMES AND 0.05% BBN IN DRINKING WATER DURING FIRST 2 WK THEN 40 MG/K): 33%, 20%, 39%, not significant | tumour outcome (control, treated, inhibition, significance) (Carcinogen: DIETHYLNITROSAMINE, 55-18-5, N-METHYL-N-NITROSOUREA, 684-93-5, N-BUTYL-N-(4-HYDROXYBUTYL)NITROSAMINE, 3817-11-6, DIMETHY, Carcinogen: DIETHYLNITROSAMINE, 55-18-5, N-METHYL-N-NITROSOUREA, 684-93-5, N-BUTYL-N-(4-HYDROXYBUTYL)NITROSAMINE, 3817-11-6, DIMETHY, 1% IN THE DIET FOR 24 WK BEGINNING 1 DAY POST CARCINOGEN TREATMENT (STUDY DURATION: 28 WK), Strain/Sex: F344/MALE, Target Tissue: Type of Lesion: SMALL INTESTINE: CARCINOMA, Dose [Carcinogen]: 100 MG/KG BW DEN ONCE FOLLOWED BY 20 MG/KG BW MNU 4 TIMES AND 0.05% BBN IN DRINKING WATER DURING FIRST 2 WK THEN 40 MG/K): 7%, 20%, -185%, not significant | tumour outcome (control, treated, inhibition, significance) (Carcinogen: DIETHYLNITROSAMINE, 55-18-5, N-METHYL-N-NITROSOUREA, 684-93-5, N-BUTYL-N-(4-HYDROXYBUTYL)NITROSAMINE, 3817-11-6, DIMETHY, Carcinogen: DIETHYLNITROSAMINE, 55-18-5, N-METHYL-N-NITROSOUREA, 684-93-5, N-BUTYL-N-(4-HYDROXYBUTYL)NITROSAMINE, 3817-11-6, DIMETHY, 1% IN THE DIET FOR 24 WK BEGINNING 1 DAY POST CARCINOGEN TREATMENT (STUDY DURATION: 28 WK), Strain/Sex: F344/MALE, Target Tissue: Type of Lesion: THYROID: CARCINOMA, Dose [Carcinogen]: 100 MG/KG BW DEN ONCE FOLLOWED BY 20 MG/KG BW MNU 4 TIMES AND 0.05% BBN IN DRINKING WATER DURING FIRST 2 WK THEN 40 MG/K): 7%, 0%, 100%, not significant
